Source: patent publication US7994119B2, “Compounds for control of appetite” (University Of Cincinnati, priority 2004, dated 2011)

Assays:
129/J male mice = test: feeding patterns of fasted mice after intraperitoneal injection (food intake); type: in vivo; settings: mice fasted 24 hours; for control of food intake (PYY analogs): numbers only in FIGS. 3-5
Protocol: (§1) To study the feeding patterns of animals treated with the extended tripeptide BG-116, eight week old 129/J male mice are individually housed under 12-hour light/dark cycles with free access to water and standard chow. After acclimatizing for two weeks, mice are fasted 24 hours before the experiment. Saline (0.1 ml) or peptide (2 mg/mice) in saline (0.1 ml) is injected intraperitoneally, and the food intake during the next 4, 6, and 24 hours is monitored and quantified.
as §1, with “the O-glycosylated tripeptide,” for “the extended tripeptide BG-116,”, “next 4” for “next 4, 6,”, “and 6” for “and 24”
as §1, with “with BT-48 or N-α-Ac[Nle^24,28, Trp^30, Nva^31, ψ^35/36]PYY(22-36)-NH2 wherein ψ is —CH2-NH— (SEQ. ID. NO. 8),” for “with the extended tripeptide BG-116,”, “peptide (100 μg/mice)” for “peptide (2 mg/mice)”, “next 4” for “next 4, 6,”, “and 6” for “and 24”
as §1, with “BT-56 or N-α-Ac-[Trp^27, ψ^35/36]PYY(25-36)-NH2 wherein ψ is —CH2-NH— (SEQ. ID. NO. 7),” for “extended tripeptide BG-116,”, “(100 μg/mice)” for “(2 mg/mice)”, “4” for “4, 6, and 24”
as §1, with “BWX-115 or N-α-Ac-[Trp^30]PYY(25-36)-NH2 wherein ψ is —CH2-NH— (SEQ. ID. NO. 6),” for “the extended tripeptide BG-116,”, “(20 μg/mice)” for “(2 mg/mice)”, “4” for “4, 6,”

Y5 = target: T1, Y5 (Homo sapiens, UniProt Q15761); settings: cited from earlier work
T1 sequence (Q15761 1-445): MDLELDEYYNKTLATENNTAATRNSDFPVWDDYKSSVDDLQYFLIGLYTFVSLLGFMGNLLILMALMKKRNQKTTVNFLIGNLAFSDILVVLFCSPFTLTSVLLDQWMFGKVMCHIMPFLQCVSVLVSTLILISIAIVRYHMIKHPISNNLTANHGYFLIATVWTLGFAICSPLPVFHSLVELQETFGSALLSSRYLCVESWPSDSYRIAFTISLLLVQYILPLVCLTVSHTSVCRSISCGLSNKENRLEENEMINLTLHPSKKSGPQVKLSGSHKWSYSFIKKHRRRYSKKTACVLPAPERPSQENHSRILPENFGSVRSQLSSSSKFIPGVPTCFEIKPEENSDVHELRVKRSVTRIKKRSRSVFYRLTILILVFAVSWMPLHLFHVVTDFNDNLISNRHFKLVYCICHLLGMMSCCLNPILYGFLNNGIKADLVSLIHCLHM

Y4 = Y4 (Homo sapiens, UniProt P50391); settings: cited from earlier work
Sequence of Y4 (P50391 whole entry): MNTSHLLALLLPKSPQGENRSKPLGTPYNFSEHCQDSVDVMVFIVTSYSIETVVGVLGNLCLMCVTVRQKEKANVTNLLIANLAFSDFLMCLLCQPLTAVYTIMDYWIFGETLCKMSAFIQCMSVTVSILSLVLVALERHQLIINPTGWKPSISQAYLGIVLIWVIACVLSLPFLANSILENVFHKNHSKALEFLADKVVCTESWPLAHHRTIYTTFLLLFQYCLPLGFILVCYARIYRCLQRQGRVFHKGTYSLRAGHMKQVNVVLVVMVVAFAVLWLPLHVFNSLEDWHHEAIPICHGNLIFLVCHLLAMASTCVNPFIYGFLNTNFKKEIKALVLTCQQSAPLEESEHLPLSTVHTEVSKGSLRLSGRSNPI

[1] = system: normal and fasted mice and rats, normal and obese humans; settings: peripheral administration; cited from earlier work

N-α-Ac-Trp-Arg-Tyr-[β-D-Glc]-NH2 [BG-7]
inhibition of feeding (O-glycosylated tripeptide) (129/J male mice; numbers only in FIG. 2): can inhibit feeding in subjects

N-α-Ac-[Trp^27, ψ^35/36]PYY(25-36)-NH2 (Ac-RHWLNLVTRQRY-NH2; also: reduced CH2-NH bond between residues 35/36) [BT-56]
control of food intake (PYY analogs) (129/J male mice): could be used to control food intake in animals and humans

N-α-Ac-[Trp^30]PYY(25-36)-NH2 (Ac-RHYLNWVTRQRY-NH2) [BWX-115]
control of food intake (PYY analogs) (129/J male mice): could be used to control food intake in animals and humans

N-α-Ac[Nle^24,28, Trp^30, Nva^31, ψ^35/36]PYY(22-36)-NH2 (ASXRHYXNWXTRQRY; N-acetyl, C-amide, reduced CH2-NH bond 35/36; Artficial peptide) [BT-48]
control of food intake (PYY analogs) (129/J male mice): could be used to control food intake in animals and humans

PYY(3-36): a NPY Y2-preferring ligand
activation of Y5 receptors (Y5): potently activate | activation of Y4 receptors (Y4): potently activate | food intake [1]: attenuate food intake
